For series [1] the following is noted: 25° C.; cited from earlier work.
The next series deals with A549 cells. The experiment in a line: Migration of latex beads on A549 cell surface after application of surfactant (microgrid / semi-automated counting). Format: cell-based. The conditions noted are these: 4.5 μm latex beads on A549 cells, CELLocate microgrid, surfactant applied directly; p<0.05, ANOVA; water control showed no migration. The text has this: A particularly preferred embodiment of the present invention comprises the identification of molecules to be used in the pMDI to push the medication deeper into the lungs. For this purpose an in vitro technique to visualize and monitor migration of latex beads placed on tissue cells after application of the appropriate surfactant may be used. […] K. Fumoto, […]. […] The microgrid coverslips can be used to monitor and quantify bead movement on cell surfaces reflecting similar characteristics to tracheal and pulmonary tissues. […] The movement of latex beads may then be monitored by counting the beads before adding the surfactant and then again after allowing the surfactant to spread for a period of time (for example 10 seconds). […] The effect of pMDI-delivered surfactant, e.g., PTC, Survanta®, on latex bead movement can be determined using the above cell model. […] Beads in 220 μm^2 virtual square grids along a 220×11,000 μm lane (50 grids in total), predefined using the automated stage controller coupled to the microscope, can be counted and quantified, before (initial) and after (final) application of surfactant. Bead migration along an extended lane can then be monitored. […]

The values below come from patent publication US8591954B2, “Phospholipid-based inhalation system” (Next Breath, LLC, priority 2006, dated 2013).

“Also recorded” adds a separate entry of the source.

Take `FC(C(F)(F)F)C(F)(F)F` [HFA-227]: in series [1], the dielectric constant was 3.94.

In the case of Phosphatidylcholine [PTC], the “migration of latex beads (bead count ratio Final:Initial)” value in the series with A549 cells is listed as “significant migration of latex beads; also recorded: significantly migrate”.
